Literature values in patent publication US20040259937A1, “Hydroxycitric acid complex metal salts, composition, and methods” (INDFRAG LIMITED, priority 2003, published 2004).

Conditions: converted to the lactone form during processing

O=C(O)CC(O)(C(=O)O)C(O)C(=O)O (single isomer, unassigned; (-)) [(−)hydroxycitric acid]
stability of pure free acid: not stable
